Earlier results, collected in US8637310B2, “Use of a rock inhibitor to sustain primary human keratinocytes in a proliferative state” (The United States of America, as represented by the …, priority 2008, dated 2014).

Tested on: airway epithelial cells
Conditions: Moore et al. 2004; cited from earlier work

In the case of `O=S(=O)(c1cccc2cnccc12)N1CCCNCC1` [HA 1077], the “effect on airway epithelial cells” value is given as “induces membrane ruffling, loss of actin stress fibers and apoptosis”.
